These compounds were tested against c-Kit kinase (Homo sapiens (Human), UniProt P10721) (assay: c-Kit biochemical assay (AlphaScreen kinase activity)).
Summary of the method: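 IC50 values come from 8-point, 1:3 compound titrations measuring inhibition of peptide phosphorylation by c-Kit (commercial or His-tagged E. coli-expressed) over 1 h at room temperature, read by AlphaScreen PY30/streptavidin beads. Low-ATP version: 10 μM ATP, 100 nM biotin-(E4Y)3; high-ATP version: 100 μM ATP, 30 nM biotin-(E4Y)10.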

Sequence of c-Kit kinase (P10721 26-976): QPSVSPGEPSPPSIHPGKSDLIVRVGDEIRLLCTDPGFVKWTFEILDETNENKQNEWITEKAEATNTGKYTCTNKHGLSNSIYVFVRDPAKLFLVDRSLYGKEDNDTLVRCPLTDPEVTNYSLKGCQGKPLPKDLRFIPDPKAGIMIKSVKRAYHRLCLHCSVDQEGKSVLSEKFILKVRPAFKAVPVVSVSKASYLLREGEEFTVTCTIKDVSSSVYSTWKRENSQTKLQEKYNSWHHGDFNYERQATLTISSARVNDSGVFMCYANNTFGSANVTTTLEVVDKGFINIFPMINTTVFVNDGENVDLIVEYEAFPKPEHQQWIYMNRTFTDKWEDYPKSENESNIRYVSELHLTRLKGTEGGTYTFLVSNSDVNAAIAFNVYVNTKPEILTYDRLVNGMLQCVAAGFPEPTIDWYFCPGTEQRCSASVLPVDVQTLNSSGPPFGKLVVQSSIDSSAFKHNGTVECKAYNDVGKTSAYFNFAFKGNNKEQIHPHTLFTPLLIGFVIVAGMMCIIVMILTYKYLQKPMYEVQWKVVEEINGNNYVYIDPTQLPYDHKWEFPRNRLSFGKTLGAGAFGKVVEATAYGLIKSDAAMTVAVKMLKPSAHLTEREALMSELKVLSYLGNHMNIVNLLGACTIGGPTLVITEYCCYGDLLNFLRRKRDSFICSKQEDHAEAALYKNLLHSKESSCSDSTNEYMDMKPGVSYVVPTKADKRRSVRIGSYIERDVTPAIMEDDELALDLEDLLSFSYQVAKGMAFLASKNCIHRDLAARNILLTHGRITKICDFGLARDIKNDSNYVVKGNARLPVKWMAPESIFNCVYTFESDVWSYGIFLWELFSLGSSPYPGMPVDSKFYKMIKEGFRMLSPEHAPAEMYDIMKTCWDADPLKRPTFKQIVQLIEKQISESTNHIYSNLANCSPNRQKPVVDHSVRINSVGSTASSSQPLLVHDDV

SMILES	IC50
Cc1cc2c(N3CCC(c4nc(C)c(-c5ccc6c(c5)OC(F)(F)O6)[nH]4)CC3)ncnc2[nH]1 [P-3127, 4-[4-[5-(2,2-difluoro-1,3-benzodioxol-5-yl)-4-methyl-1H-imidazol-2-yl]-1-piperidyl]-6-methyl-7H-pyrrolo[2,3-d]pyrimidine]	1 to 10 µM
COc1ccc(-c2[nH]c(C3CCN(c4ncnc5[nH]c(C)cc45)CC3)nc2C)cc1C [P-3128, 4-[4-[5-(4-methoxy-3-methyl-phenyl)-4-methyl-1H-imidazol-2-yl]-1-piperidyl]-6-methyl-7H-pyrrolo[2,3-d]pyrimidine]	1 to 10 µM
COc1cc(-c2[nH]c(C3CCN(c4ncnc5[nH]c(C)cc45)CC3)nc2C)ccc1C [P-3129, 4-[4-[5-(3-methoxy-4-methyl-phenyl)-4-methyl-1H-imidazol-2-yl]-1-piperidyl]-6-methyl-7H-pyrrolo[2,3-d]pyrimidine]	1 to 10 µM
COc1ccc(-c2[nH]c(C3CCN(c4ncnc5[nH]c(C)cc45)CC3)nc2C)cc1 [P-3130, 4-[4-[5-(4-methoxyphenyl)-4-methyl-1H-imidazol-2-yl]-1-piperidyl]-6-methyl-7H-pyrrolo[2,3-d]pyrimidine]	1 to 10 µM
COc1cccc(-c2[nH]c(C3CCN(c4ncnc5[nH]c(C)cc45)CC3)nc2C)c1 [P-3131, 4-[4-[5-(3-methoxyphenyl)-4-methyl-1H-imidazol-2-yl]-1-piperidyl]-6-methyl-7H-pyrrolo[2,3-d]pyrimidine]	1 to 10 µM
Cc1nc(C2CCN(c3ncnc4[nH]c(-c5ccc(C#N)cc5)cc34)CC2)[nH]c1-c1ccc2c(c1)OCCO2 [P-3132, 4-[4-[4-[5-(2,3-dihydro-1,4-benzodioxin-6-yl)-4-methyl-1H-imidazol-2-yl]-1-piperidyl]-7H-pyrrolo[2,3-d]pyrimidin-6-yl]benzonitrile]	0.0001 to 1 µM
Cc1nc(C2CCN(c3ncnc4[nH]c(-c5cnn(C(F)F)c5)cc34)CC2)[nH]c1-c1ccc2c(c1)OCCO2 [P-3133, 6-[1-(difluoromethyl)pyrazol-4-yl]-4-[4-[5-(2,3-dihydro-1,4-benzodioxin-6-yl)-4-methyl-1H-imidazol-2-yl]-1-piperidyl]-7H-pyrrolo[2,3-d]pyrimidine]	0.0001 to 1 µM
COc1cc(-c2cc3c(N4CCC(c5nc(C(F)(F)F)c(-c6ccc(C)cc6)[nH]5)CC4)ncnc3[nH]2)ccn1 [P-3134, 6-(2-methoxy-4-pyridyl)-4-[4-[5-(p-tolyl)-4-(trifluoromethyl)-1H-imidazol-2-yl]-1-piperidyl]-7H-pyrrolo[2,3-d]pyrimidine]	0.0001 to 1 µM
Cc1ccc(-c2[nH]c(C3CCN(c4ncnc5[nH]c(-c6ccc(F)cc6)cc45)CC3)nc2C(F)(F)F)cc1 [P-3135, 6-(4-fluorophenyl)-4-[4-[5-(p-tolyl)-4-(trifluoromethyl)-1H-imidazol-2-yl]-1-piperidyl]-7H-pyrrolo[2,3-d]pyrimidine]	0.0001 to 1 µM
Cc1nc(C2CCN(c3ncnc4[nH]c(-c5ccc(F)cc5)cc34)CC2)[nH]c1-c1ccc(C(F)(F)F)cc1 [P-3136, 6-(4-fluorophenyl)-4-[4-[4-methyl-5-[4-(trifluoromethyl)phenyl]-1H-imidazol-2-yl]-1-piperidyl]-7H-pyrrolo[2,3-d]pyrimidine]	1 to 10 µM
Cc1nc(C2CCN(c3ncnc4[nH]c(-c5ccc(C#N)cc5)cc34)CC2)[nH]c1-c1ccc(C(F)(F)F)cc1 [P-3137, 4-[4-[4-[4-methyl-5-[4-(trifluoromethyl)phenyl]-1H-imidazol-2-yl]-1-piperidyl]-7H-pyrrolo[2,3-d]pyrimidin-6-yl]benzonitrile]	1 to 10 µM
Cc1nc(C2CCN(c3ncnc4[nH]c(-c5cnn(C(F)F)c5)cc34)CC2)[nH]c1-c1ccc2c(c1)OCO2 [P-3138, 4-[4-[5-(1,3-benzodioxol-5-yl)-4-methyl-1H-imidazol-2-yl]-1-piperidyl]-6-[1-(difluoromethyl)pyrazol-4-yl]-7H-pyrrolo[2,3-d]pyrimidine]	0.0001 to 1 µM

Source: US9771369B2, “Compounds and methods for kinase modulation, and indications therefor” (Plexxikon Inc., priority 2014, dated 2017)
